The record followed here is patent US4333938A, “Imino derivatives of 5-aminobenzodioxole-1,3 which are useful as medicaments” (Laboratoires Sarget, priority 1979, dated 1982).

For one data set, the system named is carageenan-induced edema. Nature of the data set: inhibition of carrageenan-induced edema. In kind it is in vivo, male Wistar rat. Particulars: oral. The protocol:
The inflammation is produced in the male Wistar rat by injection of 0.1 ml of a 0.5% suspension of carageenan in physiological serum, into the muscular fascia of the metatarsal region of the hind foot of the animal. The test substance is administered orally at the same time as the carageenan or 30 or 60 min before carageenan. The edema is measured by plethysmometry three hours after the adminstration of the carrageenan.
A general note: In the carrageenan paw model, swelling and tenderness develop within hours.

The next data set concerns phenylbenzoquinone (PBQ). Description: analgesic activity, phenylbenzoquinone (PBQ) challenge. The format is in vivo. Particulars: male Swiss mouse, oral; for ED50: method of Lichfield and Wilcoxon. As to the method:
The analgesic activity was determined in the male Swiss mouse using phenylbenzoquinone (PBQ) as the challenging agent (variation of the method of Siegmund et al, Proc. Soc. Exp. Biol. Med. […], 95, 729-31). […] The ED50 was determined by the method of Lichfield and Wilcoxon.

The test system of data set [1] is carrageenan-induced granulomas. Nature of the data set: activity on carrageenan-induced granulomas. In kind it is in vivo, Male Wistar rats. The protocol: Male Wistar rats weighing 130 to 150 grams were given a subcutaneous injection in the central part of the skin of the back of 0.5 ml of an aqueous suspension of carrageenan. Two doses of the test substance are administered, one 30 minutes before and the other 6 hours after carrageenan. At the end of 24 hours the rats were sacrificed and the granulomas were removed and weighed before and after drying for 24 hours at 50° C. The difference in weight of the granulomas wet and dry represents the exudate
These AD50 are respectively 175(142-215) and 175(150-205) mg/kg.

Another data set in a line: solubility in water. In kind it is physicochemical.
A short description of data set [2]: oral toxicity (mortality) in the mouse. Particulars: in vivo, Swiss mice. The protocol: The percentages of mortality produced by the compounds of this invention when administered orally to Swiss mice are shown in Table 1. The animals, free from specific pathogenic organisms were housed in an air conditioned room for 24 to 48 hours before the start of the experiment. They were separated into groups of 5 males and 5 females. The materials were administered to animals which had been fasted for 24 hours by means of a gastric tube in suspension in a 6% thickened julep using a volume equivalent to 0.1 ml per 10 g of body weight. […] They remained under observation for two weeks before being sacrificed and autopsied.

The test system of another data set is stomachs. Description: ulcerogenic activity. In kind it is in vivo, female Wistar rat. The protocol: The ulcerogenic activity was determined in the female Wistar rat using a variation of the procedure described by J. M. Lwoff, J. Pharmacol. 1971, 3, 1, 81-3. The test substance was administered daily for 3 days to the animals maintained on a aqueous diet. The stomachs were removed after 1, 2, and 3 days of treatment and the ulcerations were classified from 0 to 4. The ulceration index is calculated for each group of animals as the product (average of the classes x the percentage of animals afflicted), while distinguishing acute ulcerations from ulcers which were in the process of healing.

Another data set concerns cotton pellet granulomas. Nature of the data set: inhibition of cotton pellet granulomas. In kind it is in vivo, male Sprague-Dawley rats. Particulars: oral, daily for 10 days. The protocol: Two cotton pellets weighing 70 mg were implanted under the back skin of male Sprague-Dawley rats anesthetized with ether. Starting the next day, the compound was administered orally daily for 10 days. The rats were sacrificed and the pellets were removed and weighed before and after drying at 50° C. for 24 hours. The weights used were those obtained after deduction of the weight of the implants. The average of the quantities so calculated was determined for each group and compared to the averages of the control group.

In another data set the test system is blood sugar level. Description: antidiabetic activity, blood sugar level in streptozotocin hyperglycemic rats. In kind it is in vivo, Female rats. Also noted: key: NS: the difference between the blood sugar level in the treated animals and the control animals is not significant; the difference is significant by Student's test at p≤0.05. Particulars: oral. The protocol: Female rats weighing 180-200 grams were given an intraperitoneal dose on day J0 of 100 mg/kg of streptozotocin in a 0.05 M citrate buffer at a pH of 4.5 calculated as 0.5 ml per 100 g of body weight. On day J2 hyperglycemic animals were selected by determining the blood sugar level by the orthotoludine method in a stream continuously removed from the retroorbital sinus. […] On day J3, without previous fasting, the selected animals received the treatment. This consisted of oral administration of the test compound in a 6% aqueous suspension of gum arabic at a volume of 0.5 ml per 100 g of body weight.
The animals were sacrificed one, two, or four hours after the treatment and their blood sugar levels were determined. Each group of animals was compared to a control group of animals which received only the suspension of gum arabic. Metformin was the substance chosen as the control.
The results are given in Table 8 which indicates the percentage of decrease in the blood sugar level produced by the treatment.

“And” between values parts separate entries of the source, which are not always exact repeats. Equal values may be shown once.

For the compound `CC(=O)Oc1ccccc1C(=O)O` [Aspirin, reference compound], the “% inhibiting activity on carrageenan-induced edema” value (“% inhibiting activity” for short) with carageenan-induced edema (at To, 75 mg/kg) came to 40%; with carageenan-induced edema (at To, 150 mg/kg), 46%; with carageenan-induced edema (at To, 300 mg/kg), 68%; in the data set on carageenan-induced edema (at To, 450 mg/kg) it was 64%.

One may read the ED50 as the dose at which the effect has come halfway, by size or by number of responders. The mortality is the share of the test organisms that died. For `C(=Nc1ccc2c(c1)OCO2)c1cccs1` [Example 1, N-thienylidene-5-aminobenzodioxole-1,3], the “% analgesic activity” value in the data set with phenylbenzoquinone (PBQ) (100 mg/kg) stood at 34%; with phenylbenzoquinone (PBQ) (125 mg/kg), 43%; in the data set on phenylbenzoquinone (PBQ) (150 mg/kg), 69%; in the data set on phenylbenzoquinone (PBQ) (200 mg/kg), 73%. Also, the median effective dose (ED50) in the data set with phenylbenzoquinone (PBQ) was 130 mg/kg. For the same compound, the “Exudate, % activity” value in data set [1] (200 mg/kg administered twice) amounted to 6%. Besides, in data set [1] (200 mg/kg administered twice), the “Exudate, % animals 30% protected” value worked out at 12.5%. The “Weight of dry granuloma, % activity” value in data set [1] (200 mg/kg administered twice) was 1%. The “Weight of dry granuloma, % animals 30% protected” value in data set [1] (200 mg/kg administered twice) is recorded as 12.5%. The “Weight of wet granuloma, % activity” value in data set [1] (200 mg/kg administered twice) is reported as 6%. Besides, the “Weight of wet granuloma, % animals 30% protected” value in data set [1] (200 mg/kg administered twice) was 12.5%. Moreover, the solubility in water result in the data set “solubility in water” is on record as “insoluble in water”. The mortality at 336 h in data set [2] (1000 mg/kg) came out at 0%; in data set [2] (1500 mg/kg), 20%; in data set [2] (2000 mg/kg) it was 60%; in data set [2] (3000 mg/kg), 70%. Further, the “% inhibiting activity” value in the data set on carageenan-induced edema (at To (same time as carrageenan), 25 mg/kg) was 19%; in the data set with carageenan-induced edema (at To, 50 mg/kg), 41%; in the data set on carageenan-induced edema (at To, 100 mg/kg), 52%; in the data set with carageenan-induced edema (at To, 200 mg/kg), 56%; in the data set with carageenan-induced edema (at To, 400 mg/kg), 58%.

With `Cc1ccsc1C=Nc1ccc2c(c1)OCO2` [Example 4, N-(3-methyl-2-thienylidene)-5-aminobenzodioxole-1,3], the “% analgesic activity” value in the data set with phenylbenzoquinone (PBQ) (75 mg/kg) worked out at 21%; in the data set with phenylbenzoquinone (PBQ) (100 mg/kg) it was 40%; with phenylbenzoquinone (PBQ) (150 mg/kg), 37%; in the data set on phenylbenzoquinone (PBQ) (200 mg/kg) it was 62%; with phenylbenzoquinone (PBQ) (300 mg/kg) it was 67%. In addition, the ED50 in the data set with phenylbenzoquinone (PBQ) stood at 170 mg/kg. Further, the “Exudate, % activity” value in data set [1] (100 mg/kg administered twice) is recorded as 21%; in data set [1] (200 mg/kg administered twice), 34.5%; in data set [1] (300 mg/kg administered twice), 44.5%. Further, the “Exudate, % animals 30% protected” value in data set [1] (100 mg/kg administered twice) amounted to 38%; in data set [1] (200 mg/kg administered twice), 71%; in data set [1] (300 mg/kg administered twice), 75%. Further, the “Weight of dry granuloma, % activity” value in data set [1] (100 mg/kg administered twice) was found to be 16%; in data set [1] (200 mg/kg administered twice) it was 31%; in data set [1] (300 mg/kg administered twice), 42.5%. The “Weight of dry granuloma, % animals 30% protected” value is 31% in data set [1] (100 mg/kg administered twice), 64% in data set [1] (200 mg/kg administered twice) and 67% in data set [1] (300 mg/kg administered twice). The “Weight of wet granuloma, % activity” value was determined as 20.5% in data set [1] (100 mg/kg administered twice), 34% in data set [1] (200 mg/kg administered twice) and 44.5% in data set [1] (300 mg/kg administered twice). The results for the “Weight of wet granuloma, % animals 30% protected” value in data set [1] (100 mg/kg administered twice), in data set [1] (200 mg/kg administered twice) and in data set [1] (300 mg/kg administered twice) were 38%, 71% and 75%, respectively. The “Ulceration Index, acute” value is 0 in the data set with stomachs (150 mg/kg daily, Day 1); 0 in the data set with stomachs (150 mg/kg daily, Day 2); 72 in the data set with stomachs (150 mg/kg daily, Day 3). The “Ulceration Index, healing” value was 0 with stomachs (150 mg/kg daily, Day 1); 8 in the data set with stomachs (150 mg/kg daily, Day 2); 16 in the data set with stomachs (150 mg/kg daily, Day 3). For the same compound, the solubility in water result in the data set “solubility in water” is “insoluble in water”. Also, the mortality at 336 h was found to be 10% in data set [2] (750 mg/kg); 10% in data set [2] (1000 mg/kg); 60% in data set [2] (1500 mg/kg); 20% in data set [2] (1750 mg/kg); 20% in data set [2] (2000 mg/kg). Also, the “% inhibiting activity” value was 35% with carageenan-induced edema (at To, 75 mg/kg); 35% in the data set on carageenan-induced edema (at To, 150 mg/kg); 68% in the data set on carageenan-induced edema (at To, 300 mg/kg). Also, the “% inhibition with respect to dry pellets” value is 10% in the data set on cotton pellet granulomas (dose 150) and 19% with cotton pellet granulomas (dose 300). For the same compound, the “% inhibition with respect to wet pellets” value in the data set with cotton pellet granulomas (dose 150) turned out to be 13%; with cotton pellet granulomas (dose 300), 14%.

With `CN(C)C(=N)N=C(N)N` [Metformin, reference compound], the “Percentage Decrease in the Blood Sugar” value in the data set on blood sugar level (200 mg/kg, treatment 1 h before sacrificing) is listed as “NS”; with blood sugar level (200 mg/kg, treatment 2 h before sacrificing), “NS”; in the data set with blood sugar level (200 mg/kg, treatment 4 h before sacrificing), “NS”; in the data set with blood sugar level (400 mg/kg, treatment 1 h before sacrificing), 14%; in the data set on blood sugar level (400 mg/kg, treatment 2 h before sacrificing) it was “NS”; in the data set with blood sugar level (400 mg/kg, treatment 4 h before sacrificing) it was 15%.

Consider `O=C(O)c1cccnc1Nc1cccc(C(F)(F)F)c1` [Niflumic Acid, reference compound], for which, in data set [1] (25 mg/kg administered twice), the “Exudate, % activity” value is on record as 42.5%; the “Exudate, % animals 30% protected” value is given as 100%; the “Weight of dry granuloma, % activity” value turned out to be 41.5%; the “Weight of dry granuloma, % animals 30% protected” value is 87%. Besides, in data set [1] (25 mg/kg administered twice), the “Weight of wet granuloma, % activity” value turned out to be 42.5% and the “Weight of wet granuloma, % animals 30% protected” value is recorded as 100%. In the data set on stomachs (100 mg/kg daily, Day 1), the “Ulceration Index, acute” value is listed as 330 and the “Ulceration Index, healing” value is listed as 0. In the data set with stomachs (100 mg/kg daily, Day 2), the “Ulceration Index, acute” value worked out at 1 and the “Ulceration Index, healing” value was found to be 400. For the same compound, in the data set with stomachs (100 mg/kg daily, Day 3), the “Ulceration Index, acute” value came out at 119 and the “Ulceration Index, healing” value is listed as 378. Moreover, the “% inhibiting activity” value in the data set on carageenan-induced edema (at To, 75 mg/kg) was found to be 37%. Besides, in the data set on carageenan-induced edema (at To, 100 mg/kg), the “% inhibiting activity” value was found to be 27%. Also, the “% inhibiting activity” value in the data set on carageenan-induced edema (at To, 125 mg/kg) is recorded as 40%. Moreover, in the data set on carageenan-induced edema (at To, 150 mg/kg), the “% inhibiting activity” value is 37% and 59%. For the same compound, in the data set with cotton pellet granulomas (dose 50), the “% inhibition with respect to dry pellets” value is recorded as 12% and the “% inhibition with respect to wet pellets” value is given as 3%.
